Test results taken from patent US20090320869A1, “METHODS FOR PREVENTING REVERSION OF RELAXED KERATINOUS FIBERS AND FOR RELAXING KERATINOUS FIBERS” (L'Oreal, S.A.,, priority 2003, published 2009).

How the values were obtained:
Design in all cases: species or system human
[1] = Effect of D-xylose on hair relaxed with a commercial thioglycolate relaxer (Example 5); details: for % Reversion / % Straightening: flat iron 30 sec 175° C., 1 h at 100% RH
Experimental: [formula] The percent reversion (“% reversion”)=100%−(% straightening) Virgin African-American (kinky) hair was processed with a commercial thioglycolate cream relaxer as follows. The thioglycolate cream relaxer was applied to a swatch of kinky hair for 15 min at room temperature (reduced hair). Next, the thioglycolate cream was washed off, the swatch was profusely rinsed with tepid water, and a hydrogen peroxide cream was applied for 5 min. The treatment solutions included: water and 5% D-xylose. The treatment solutions were applied either between the rinsing of the thioglycolate cream relaxer and the application of the hydrogen peroxide cream, or after the application of the hydrogen peroxide cream, respectively. The treatment solutions was applied for 5 min at room temperature. Next, the swatch was briefly rinsed to remove an excess of the treatment solution from the hair surface, blow-dried, and heat was applied in the form of a flat iron for 30 sec (175° C.). The heat-treated swatch was rinsed with tepid water, air-dried at 50% RH (25° C.), and maintained for 1 h at 100% RH (25° C.). The percent hair straightening was determined as in Example 1.

[2] = Effect of D-xylose concentration on hair relaxed with a commercial alkali relaxer (Example 4); details: for % Reversion / % Straightening: flat iron 1 min 175° C., 1 h at 100% RH
Experimental: [formula] The percent reversion (“% reversion”)=100%−(% straightening) Virgin African-American (kinky) hair was processed with an alkali relaxer as follows. The commercial cream relaxer was applied to a swatch of hair for 10 min at room temperature. Next, the cream was washed off, the swatch was profusely rinsed with tepid water, and the treatment solution was applied for 5 min. The treatment solutions included water; 1% D-xylose; 3% D-xylose; and 5% D-xylose. Next, the swatch was briefly rinsed to remove an excess of the treatment solution from the hair surface, blow-dried, and heat was applied in the form of a flat iron for 1 min (175° C.). The heat-treated swatch was rinsed with tepid water, air-dried at 50% RH (25° C.), and maintained for 1 h at 100% RH (25° C.). The percent hair straightening was determined as in Example 1.

[3] = Percent straightening / reversion of hair relaxed with various concentrations of sodium hydroxide, D-xylose post-treatment and heat (Example 2); details: for % Reversion / % Straightening: flat iron 1 min 130° C., 24 h at 90% RH
Experimental: [formula] The percent reversion (“% reversion”)=100%−(% straightening) Virgin African-American (kinky) hair was processed with different concentrations of sodium hydroxide for 20 min at room temperature: 1.0%, 1.5%, 2.0%, and 2.5% NaOH, respectively. Next, the sodium hydroxide solution was washed off, the swatch was profusely rinsed with tepid water, and the treatment solution was applied for 5 min at room temperature. The treatment solutions included water and 5% D-xylose. Next, the swatch was briefly rinsed to remove an excess of the treatment solution from the hair surface, blow-dried, and heat was applied in the form of a flat iron for 1 min (130° C.). The heat-treated swatch was rinsed with tepid water, air-dried at 50% RH (25° C.), and maintained for 24 h at 90% RH (25° C.). The percent hair straightening was determined as in Example 1.

[4] = Effect of pH of D-xylose solutions on hair relaxed with 2.0% sodium hydroxide (Example 3); details: for % Reversion / % Straightening: 2.0% NaOH + 5% D-Xylose, flat iron 1 min 130° C., 24 h at 90% RH
Experimental: [formula] The percent reversion (“% reversion”)=100%−(% straightening) Virgin African-American (kinky) hair was processed with 2.0% sodium hydroxide for 20 min at room. Next, the sodium hydroxide solution was washed off, the swatch was profusely rinsed with tepid water, and the treatment solution was applied for 10 min at 45° C. The treatment solutions included: buffer solution, pH 2.0; buffer solution, pH 6.0; buffer solution, pH 10.0; 5% D-xylose, pH 2.0; 5% D-xylose, pH 6.5; and 5% D-xylose, pH 10. The solutions were buffered using phosphoric acid and sodium hydroxide. Next, the swatch was briefly rinsed to remove an excess of the treatment solution from the hair surface, blow-dried, and heat was applied in the form of a flat iron for 1 min. (130° C.). The heat-treated swatch was rinsed with tepid water, air-dried at 50% RH (25° C.), and maintained for 24 h at 90% RH (25° C.). The percent hair straightening was determined as in Example 1.

[5] = Percent straightening / reversion of hair relaxed with 2.5% sodium hydroxide, D-xylose post-treatment and heat (Example 1); details: for % Reversion / % Straightening: flat iron five strokes 130° C., 24 at 90% RH (25° C.)
Experimental: Virgin African-American (kinky) hair was processed and 2.5% sodium hydroxide for 20 min at room temperature. Next, the sodium hydroxide solution was washed off, the swatch was profusely rinsed with tepid water, and the treatment solution was applied for 5 min at room temperature. The treatment solutions included: water; 1% D-xylose; and 5% D-xylose. Next, the swatch was briefly rinsed to remove an excess of the treatment solution from the hair surface, blow-dried, and heat was applied in the form of five strokes with a flat iron (130° C.). The heat-treated swatch was rinsed with tepid water, air-dried at 50% RH (25° C.), and maintained for 24 at 90% RH (25° C.). The percent hair straightening (“% straightening”) was determined as follows: [formula] The percent reversion (“% reversion”)=100%−(% straightening)

[6] = thioglycolate reduced hair + 5% D-Xylose, then hydrogen peroxide
[7] = thioglycolate reduced hair + hydrogen peroxide, then 5% D-Xylose
[8] = commercial alkali cream relaxer 10 min + 1% D-Xylose 5 min
[9] = commercial alkali cream relaxer 10 min + 3% D-Xylose 5 min
[10] = commercial alkali cream relaxer 10 min + 5% D-Xylose 5 min
[11] = 2.5% NaOH 20 min + 1% D-Xylose 5 min
[12] = 2.5% NaOH 20 min + 5% D-Xylose 5 min

O=C[C@H](O)[C@@H](O)[C@H](O)CO [D-Xylose, D-xylose]
reversion of relaxed hair (in words) ([1]; post-treatment with a D-xylose solution, thioglycolate hair relaxer): prevented reversion
% Reversion [1, 6]: 0.00%
% Straightening [1, 6]: 100%
% Reversion [1, 7]: 14.0%
% Straightening [1, 7]: 86.0%
% Reversion [2, 8]: 30.9%
% Straightening [2, 8]: 69.1%
% Reversion [2, 9]: 24.0%
% Straightening [2, 9]: 76.0%
% Reversion [2, 10]: 22.0%
% Straightening [2, 10]: 78.0%
reversion of relaxed hair (in words) ([2]; post-treatment with various concentrations of D-xylose vs water, commercial alkali relaxer): prevented reversion of the relaxed hair
% Reversion ([3]; 1.0% NaOH + 5% D-Xylose): 42.9%
% Straightening ([3]; 1.0% NaOH + 5% D-Xylose): 57.1%
% Reversion ([3]; 1.5% NaOH + 5% D-Xylose): 21.4%
% Straightening ([3]; 1.5% NaOH + 5% D-Xylose): 78.6%
% Reversion ([3]; 2.0% NaOH + 5% D-Xylose): 0%
% Straightening ([3]; 2.0% NaOH + 5% D-Xylose): 100%
% Reversion ([3]; 2.5% NaOH + 5% D-Xylose): 0%
% Straightening ([3]; 2.5% NaOH + 5% D-Xylose): 100%
curl reversion in relaxed kinky hair (in words) ([3]; post-treatment with a D-xylose solution vs water, 1.0-2.5% NaOH): prevented curl reversion in the relaxed kinky hair better than post-treatment with water
% Reversion ([4]; pH 2.0, 10 min at 45° C.): 20.0%
% Straightening ([4]; pH 2.0, 10 min at 45° C.): 80.0%
% Reversion ([4]; pH 6.5, 10 min at 45° C.): 10.0%
% Straightening ([4]; pH 6.5, 10 min at 45° C.): 90.0%
% Reversion ([4]; pH 10.0, 10 min at 45° C.): 0.00%
% Straightening ([4]; pH 10.0, 10 min at 45° C.): 100%
reversion of relaxed hair (in words) ([4]; post-treatment with a D-Xylose solution vs buffer solution at various pH values): prevented reversion of the relaxed hair better than post-treatment with a buffer solution
% Reversion [5, 11]: 7.2%
% Straightening [5, 11]: 92.8%
% Reversion [5, 12]: 0%
% Straightening [5, 12]: 100%
curl reversion in relaxed kinky hair (in words) ([5]; post-treatment with a D-xylose solution, hair relaxed with 2.5% NaOH): prevented curl reversion
